Data taken from the supplement of paper PMC10883282.
± gives the standard deviation of the averaged measurements.

Tested on: G401
Test: relative viability vs DMSO control (72 h) (fraction); higher = more viable cells
Outline: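 Relative viability was measured with ATPLite and expressed as percent growth, averaged across up to triplicate wells. Sarcoma cell lines had been seeded in 384-well plates to reach 80–90% confluence, dosed after 24 h, and incubated 72 h at 37 °C, 5% CO2. All data were rescaled on a scale where 1 is full and 0 is none.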

Compound | relative viability (0.00017 µM) | relative viability (0.00051 µM) | relative viability (0.00152 µM) | relative viability (0.00457 µM) | relative viability (0.01372 µM) | relative viability (0.04115 µM) | relative viability (0.1235 µM) | relative viability (0.3704 µM) | relative viability (1.111 µM) | relative viability (3.333 µM) | relative viability (10 µM)
Cc1cc(C)c(/C=C2\C(=O)Nc3ccccc32)[nH]1 [Semaxanib] | 0.957 ± 0.044 | 0.981 ± 0.031 | 0.957 ± 0.043 | 0.976 ± 0.037 | 0.964 ± 0.036 | 0.948 ± 0.019 | 0.9755 ± 0.0068 | 0.9895 ± 0.0091 | 0.932 ± 0.046 | 0.904 ± 0.05 | 0.813 ± 0.067
O=C(Nc1cnn2ccc(N3CCC[C@@H]3c3cc(F)ccc3F)nc12)N1CC[C@H](O)C1 [Larotrectinib] | 1.032 ± 0.0041 | 1.03 ± 0.016 | 1.021 ± 0.0029 | 1.04 ± 0.033 | 1.04 ± 0.03 | 1.01 ± 0.019 | 1.02 ± 0.028 | 1 ± 0.014 | 1 ± 0.048 | 0.97 ± 0.025 | 0.916 ± 0.034
C=CC(=O)N1CCC[C@@H](n2nc(-c3ccc(Oc4ccccc4)cc3)c3c(N)ncnc32)C1 [Ibrutinib] | 1.03 ± 0.025 | 1.03 ± 0.095 | 1.03 ± 0.037 | 1.01 ± 0.0057 | 1.01 ± 0.025 | 1.05 ± 0.013 | 0.998 ± 0.072 | 0.995 ± 0.05 | 1.02 ± 0.013 | 0.922 ± 0.045 | 0.668 ± 0.049
CC(C)N1CCN(Cc2cnc(-c3cc(-c4cccc5[nH]ccc45)cc4[nH]ncc34)o2)CC1 [Nemiralisib] | 0.962 ± 0.043 | 0.933 ± 0.035 | 0.883 ± 0.015 | 0.921 ± 0.033 | 0.904 ± 0.035 | 0.911 ± 0.048 | 0.916 ± 0.013 | 0.877 ± 0.01 | 0.833 ± 0.021 | 0.735 ± 0.026 | 0.609 ± 0.012
CN1CCN(c2ccc3nc(-c4c(N)c5c(F)cccc5[nH]c4=O)[nH]c3c2)CC1 [Dovitinib] | 1.02 ± 0.045 | 1.014 ± 0.0059 | 1.04 ± 0.021 | 1.018 ± 0.0017 | 1 ± 0.023 | 1.01 ± 0.051 | 0.966 ± 0.034 | 0.92 ± 0.019 | 0.632 ± 0.069 | 0.256 ± 0.013 | 0.13 ± 0.0053
COc1c(OCCCN2CCOCC2)ccc2c1N=C(NC(=O)c1cnc(N)nc1)N1CCN=C21 [Copanlisib] | 1.024 ± 0.0087 | 1 ± 0.024 | 0.959 ± 0.039 | 0.7934 ± 0.0059 | 0.702 ± 0.018 | 0.582 ± 0.033 | 0.537 ± 0.037 | 0.499 ± 0.043 | 0.476 ± 0.047 | 0.468 ± 0.02 | 0.477 ± 0.044
CNC(=O)c1ccc(-c2cnc3ncc(Cc4ccc5ncccc5c4)n3n2)cc1F [Capmatinib] | 1.01 ± 0.023 | 0.988 ± 0.024 | 1.03 ± 0.027 | 1.04 ± 0.019 | 0.977 ± 0.03 | 1.01 ± 0.058 | 0.9706 ± 0.0066 | 1.02 ± 0.0027 | 0.981 ± 0.01 | 0.929 ± 0.012 | 0.877 ± 0.053
Cn1cc(-c2cc3c(N4CCN(c5ncc([C@@](C)(N)c6ccc(F)cc6)cn5)CC4)ncnn3c2)cn1 [Avapritinib] | 0.895 ± 0.086 | 0.91 ± 0.036 | 0.907 ± 0.046 | 0.901 ± 0.023 | 0.922 ± 0.059 | 0.926 ± 0.074 | 0.918 ± 0.032 | 0.842 ± 0.033 | 0.701 ± 0.044 | 0.627 ± 0.012 | 0.506 ± 0.011
CCCS(=O)(=O)Nc1ccc(F)c(C(=O)c2c[nH]c3ncc(-c4ccc(Cl)cc4)cc23)c1F [Vemurafenib] | 1.01 ± 0.0022 | 1.02 ± 0.016 | 1.01 ± 0.017 | 1.004 ± 0.01 | 1.01 ± 0.024 | 1 ± 0.03 | 1.02 ± 0.0078 | 1.031 ± 0.0097 | 1.01 ± 0.011 | 1.01 ± 0.021 | 0.753 ± 0.023
CC1(C)CNc2cc(NC(=O)c3cccnc3NCc3ccncc3)ccc21 [Motesanib] | 0.984 ± 0.047 | 0.982 ± 0.042 | 0.973 ± 0.019 | 0.955 ± 0.03 | 0.979 ± 0.015 | 0.962 ± 0.022 | 0.949 ± 0.022 | 0.934 ± 0.036 | 0.9058 ± 0.0034 | 0.84 ± 0.034 | 0.684 ± 0.02
C=CC(=O)Nc1cccc(Oc2nc(Nc3ccc(N4CCN(C)CC4)cc3)nc3ccsc23)c1 [Olmutinib] | 0.984 ± 0.021 | 0.976 ± 0.048 | 0.969 ± 0.022 | 0.984 ± 0.039 | 0.96 ± 0.03 | 0.986 ± 0.043 | 1 ± 0.041 | 1.01 ± 0.043 | 0.916 ± 0.018 | 0.759 ± 0.019 | 0.481 ± 0.036
COc1cc2nccc(Oc3ccc(NC(=O)Nc4cc(C)on4)c(Cl)c3)c2cc1OC [Tivozanib] | 1.01 ± 0.025 | 1.03 ± 0.035 | 1.04 ± 0.025 | 1.04 ± 0.019 | 1.04 ± 0.023 | 0.98 ± 0.044 | 0.992 ± 0.056 | 0.99 ± 0.021 | 0.965 ± 0.034 | 0.713 ± 0.019 | 0.381 ± 0.0095
CNC(=O)c1cc(Oc2ccc(NC(=O)Nc3ccc(Cl)c(C(F)(F)F)c3)c(F)c2)ccn1 [Regorafenib] | 1.05 ± 0.058 | 1.06 ± 0.077 | 1.09 ± 0.071 | 1.07 ± 0.025 | 1.07 ± 0.032 | 1.07 ± 0.071 | 1.02 ± 0.058 | 0.888 ± 0.088 | 0.821 ± 0.056 | 0.609 ± 0.062 | 0.431 ± 0.029
Cc1ccc(F)c(NC(=O)Nc2ccc(-c3cccc4[nH]nc(N)c34)cc2)c1 [Linifanib] | 1.03 ± 0.045 | 1.03 ± 0.087 | 0.996 ± 0.021 | 1.02 ± 0.02 | 1.01 ± 0.064 | 0.994 ± 0.01 | 0.956 ± 0.031 | 0.956 ± 0.048 | 0.928 ± 0.04 | 0.915 ± 0.013 | 0.9524 ± 0.0058
